Source: article PMC5641094, “A peptide antagonist of Prep1-p160 interaction improves ceramide-induced insulin resistance in skeletal muscle cells” (Oncotarget, 2017)

Assays:
[1] = test system: IR tyrosine phosphorylation; test: IR tyrosine phosphorylation, immunoprecipitation and Western blot; type: cell-based, rat; conditions: insulin 100nM; for effect on insulin-stimulated IR tyrosine phosphorylation: L6 cells, C2cer 10μM 18h, with or without Prep1(54-72)
Protocol: Figure 4 Prep1(54-72) peptide restores the insulin signaling inhibited by C2cer and Prep1 L6 cells were stimulated with insulin (100nM) and incubated with Prep1(54-72) in presence of C2cer at 10μM for 18h (A-B) or stable transfection of Prep1 (C-D). Protein lysates were immunoprecipitated with specific IR or IRS1 antibodies and analyzed by Western blot using antibodies for phosphotyrosines (pY) and beta-actin as loading control. Blots were detected by ECL and autoradiography. The autoradiographs are representative of three independent experiments. Asterisks denote statistically significant differences (*p<0.05; **p<0.01).
Total cell lysates were obtained and separated by SDS-PAGE. Briefly, cells were solubilized with lysis buffer containing 50mM HEPES, 150mM NaCl, 10mM EDTA, 10mM Na4P2O7, 2mM sodium orthovanadate, 50mM NaF, 1mM phenylmethylsulfonyl fluoride, 10μg/ml aprotinin, 10μg/ml leupeptin, pH 7.4, and 1% (v/v) Triton X-100. Lysates were clarified by centrifugation at 12,000g for 20 minutes at 4°C. The protein concentrations in the cell lysates were measured using a Bio-Rad DC (detergent compatible) assay. Immunoprecipitation and Western blot analysis have been performed as previously described.

[2] = test system: Prep1 and p160 protein levels in L6 cells; test: Western blot of Prep1 and p160 protein levels in L6 cells; type: cell-based, rat; conditions: for increase of Prep1 and p160 protein levels: 18h
Protocol: Figure 1 Effect of ceramides dose-response and time-course on Prep1 and p160 protein levels L6 skeletal muscle cells were treated with different concentration of C2cer (10μM and 100μM for 18h) (A) and for different time (10μM for 6h and 18h) (B). Protein lysates were analyzed by Western blot using antibodies for Prep1, p160 and for the beta-actin, as a loading control. Blots were detected by ECL and autoradiography. The autoradiographs are representative of four independent experiments. Asterisks denote statistically significant differences (*p<0.05; **p<0.01).
Figure 2 Effect of ceramides on Prep1 and p160 mRNA expression and of Prep1-p160 coprecipitation L6 cells were treated with C2cer (10μM) for 18h and Prep1 (A) or p160 (B) mRNA levels were analyzed by real-time RT-PCR analysis. Data were normalized by the amount of GAPDH mRNA, used as internal control. Bars represent the mean ± SD of three independent experiments, each performed in triplicate. (C) L6 cells were treated with cycloheximide (CHX) at 40μg/mL concentration for 18h and the lysates were analyzed by Western blot with anti-p160 and beta-actin. The autoradiograph shown is representative of three different experiments and subjected to densitometric analysis. (D) Protein lysates from L6 cells treated with C2cer as indicated, were immunoprecipitated with Prep1 antibody and immunoblotted with p160 or Prep1 antibodies. The autoradiograph shown is representative of three different experiments and subjected to densitometric analysis. Asterisks denote statistically significant differences (*p<0.05; **p<0.01).
Figure 3 Design and in vitro effects of Prep1(54-72) peptide on Prep1/p160 association (A) Binding curves of Prep1(59-72) and Prep1(54-72) peptides to p160_20-160 by ELISA-like assays. Biotinylated peptides at several concentrations were added in triplicate to a 96-well plate coated with p160_20-160 (0.1μM). Experiments were performed at least twice and the average results fitted using GraphPad Prism. […] (B) Competition binding experiments. His6-tagged-p160_20-160 at 0.25μM was incubated with Prep1(59-72) and Prep1(54-72) at concentrations ranging between 0.001÷10μM and added to a 96-well plate coated with Prep1_45-155 (0.10μM). Results are the average of three independent experiments. (C) L6 cells were incubated with increasing concentrations of the fluorescein-conjugated peptide (FITC-Prep1(54-72)) and peptide uptake was detected by FACS analysis of fluorescein-labeled cells. Bars represent the mean ± SD of four independent experiments. (D) L6 muscle cells incubated with Prep1(54-72) were stimulated with C2cer (10μM) for 18h. Protein lysates were immunoprecipitated with Prep1 antibodies and analyzed by Western blot using antibodies for p160 or for Prep1. (E) An aliquot of the lysate was used to measure protein expression of Prep1 and p160 and the beta-actin used as loading control. The blots were detected by ECL and autoradiography. The autoradiograph is representative of three independent experiments. Asterisks denote statistically significant differences (*p<0.05; **p<0.01).
L6 rat skeletal muscle cells (ATCC, Manassas, VA, USA) were cultured in DMEM supplemented with 10% FBS and 1% penicillin/streptomycin solution at 37°C in a humidified 95% air and 5% CO2 atmosphere (all vol./vol.). […]
Total cell lysates were obtained and separated by SDS-PAGE. […] The protein concentrations in the cell lysates were measured using a Bio-Rad DC (detergent compatible) assay. […]

[3] = C2cer 10μM 18h, incubated with Prep1(54-72)

| Molecule | effect on insulin-stimulated IR tyrosine phosphorylation [1] | increase of Prep1 and p160 protein levels ([2]; C2cer 10μM) [%] | increase of Prep1 and p160 protein levels ([2]; C2cer 100μM) [%] | IR tyrosine phosphorylation in Prep1 overexpressing cells ([1]; Prep1L6 cells (stably transfected with Prep1 cDNA), incubated with Prep1(54-72)) | decrease of ceramide-induced p160 levels [2, 3] [%] | effect on ceramide-induced Prep1 levels [2, 3] |
| --- | --- | --- | --- | --- | --- | --- |
| CCCCCCCCCCCCC/C=C/[C@@H](O)[C@H](CO)NC(C)=O [C2cer, D-erythro-Sphingosine, N-Acetyl-, reference compound] | blocked | 50 | 90 |  |  |  |
| Ac-KQAIYRHPLFPLLALLFEK-NH2 [Prep1(54-72)] | restored |  |  | stimulated similarly to the control cells | 25 | did not modify |
